Publication PMC12509006, “Synthesis and Evaluation of Pyridine-Based Antibacterial Agents that Inhibit ATP Synthase in Acinetobacter baumannii” (ACS Omega, 2025)
≈ marks a conversion by molar mass, not a printed value. Read-outs that look alike come from different tables or passages of the source.

Tests used:
HEK 293 cells = experiment: XTT cell viability cytotoxicity assay; details: n = 3, 24 h treatment
[1] = target: T1, A. baumannii ATP synthase (Acinetobacter baumannii, UniProt A3M139); set-up: method as in PMID 40014581; details: quinoline lead of the earlier series, comparison; read-out: IC50, AB ATP synthase (converted); cited from earlier work
T1 construct: endogenous electron transport chains of inverted inner membrane vesicles were energized with NADH; endogenous in cells; host or cells: inverted inner membrane vesicles prepared from A. baumannii ATCC 17978 cells

MDR AB BAA 1605 [2] = tested on: MDR AB BAA 1605; set-up: method as in PMID 40014581; details: quinoline lead of the earlier series, Figure 1; cited from earlier work
MDR AB BAA 1605 [3] = experiment: Broth microdilution antimicrobial susceptibility assay, MDR isolate; details: Acinetobacter baumannii, BAA1605, read-out: MIC, MDR AB BAA 1605
AB BAA 1605 = experiment: Checkerboard assay with colistin sulfate, BAA 1605; details: for MIC: Acinetobacter baumannii, BAA1605, read-out: MIC alone, AB BAA 1605; for fold change of MIC, AB BAA 1605: alone vs +colistin; for fractional inhibitory concentration index (FICI) / interaction with colistin, MDR AB BAA 1605: synergistic FICI ≤ 0.5, additivity FICI 0.5 < x < 1
Procedure: (§1) Synthesized compounds in DMSO (2–128 μg/mL, row G-A) were combined with colistin sulfate in ultra purified water (0.125–32 μg/mL, column 2–10) in a 96-well microtiter plate checkerboard assay against ATCC 17978 and BAA-1605 (MDR). Briefly, liquid cultures of bacteria were grown for 14–16 h by inoculating a single bacterial culture into 10 mL TSB. To each well 88 μL of TSB, 10 μL of bacteria culture, and 1 from each master plate was added (see layout below). Plates were covered and incubated at 37 °C for 12–18 h.

AB ATCC 17978 [4] = experiment: Checkerboard assay with colistin sulfate, ATCC 17978; details: for MIC: Acinetobacter baumannii, ATCC17978, read-out: MIC alone, AB ATCC 17978; for fold change of MIC, AB ATCC 17978: alone vs +colistin; for fractional inhibitory concentration index (FICI) / interaction with colistin, AB ATCC 17978: synergistic FICI ≤ 0.5, additivity FICI 0.5 < x < 1
Procedure: as §1

AB ATCC 17978 [5] = experiment: Broth microdilution antimicrobial susceptibility assay, susceptible isolate; details: Acinetobacter baumannii, ATCC17978, read-out: MIC, AB ATCC 17978
[6] = target: T1, A. baumannii ATP synthase; experiment: AB ATP synthase inhibition: NADH-driven ATP synthesis in inverted inner membrane vesicles, luciferin/luciferase readout; format: biochemical; details: for Hill coefficient (Hill slope): fit of ATP synthesis dose response curve
Procedure: Once synthesized, the pyridine compounds were tested for their ability to inhibit ATP synthase activity using our previously reported luciferin/luciferase assay. Briefly, endogenous electron transport chains of inverted inner membrane vesicles were energized with NADH to generate a proton gradient and to drive ATP synthesis. ATP was measured via luminescence from the luciferase-catalyzed oxidation of D-luciferin. Luminescence activities across increasing inhibitor concentrations were corrected for gradient independent background sources of ATP by comparison with a control containing the protonophore CCCP (carbonyl cyanide 3-chlorophenylhydrazone). The data were then fit to a four-parameter logistic dose–response curve, from which IC50 values and Hill coefficients were determined using a nonlinear least-squares regression.
A. baumannii (ATCC 17978) cells were grown in LB medium at 37 °C with shaking at 150 rpm and harvested by centrifugation in the late exponential phase of growth. Cells were resuspended in TMG buffer (50 mM Tris-HCl, pH 7.5, 5 mM MgCl2, 10% v/v glycerol) with 1 mM phenylmethanesulfonyl fluoride, 1 mM dithiothreitol, and a small amount of DNase and lysed by two passes through an Avestin B15 homogenizer at 19,000 psi. Lysate was cleared by centrifugation at 9000g and inverted membrane vesicles were collected from the supernatant by centrifugation at 169,000g. To reduce background ATP synthesis activity in AB vesicles, it was important to wash the membranes by resuspending in TMG buffer and centrifuging again at 169,000g. Washed pellets were resuspended in TMG buffer, and aliquots were stored at −80 °C. Once thawed, aliquots were not refrozen. Protein concentration in membrane vesicles was determined using a modified Lowry assay.
In vitro ATP synthesis activity of inverted inner membrane vesicles was measured as previously described. A reaction solution was prepared containing 5 mM tricine-KOH, pH 8.0, 50 mM KCl, 2.5 mM MgCl2, 0.1 mM adenosine diphosphate, 3.75 mM potassium phosphate, and 2.5 mM NADH and distributed into a 96-well plate. NADH-driven ATP synthesis was initiated by addition of inverted vesicles to 50 μg/mL and allowed to proceed for 10 min. The reaction was stopped by transferring an aliquot into 1% trichloroacetic acid. The stopped reaction was diluted 100-fold with deionized water and a sample was transferred to luciferase solution containing 25 mM tricine-NaOH, pH 7.8, 5 mM MgSO4, 0.1 mM EDTA, 0.1 mM NaN3, 150 μg/mL luciferin, and 7.5 μg/mL luciferase. Luminescence was measured in an opaque white 96-well plate using a BioTek H1 multimode plate reader. Each replicate set included a positive control containing DMSO with no compound and a negative control containing carbonyl cyanide 3-chlorophenylhydrazone (CCCP). Luminescence values were corrected for background by subtracting the CCCP control and normalized to the luminescence of the DMSO control. Normalized activity was fit using a variable-slope dose response curve. Nonlinear regression, including prediction of 95% confidence bands, and pairwise comparisons of fits using the F-test method were completed using GraphPad Prism10. Relativeactivity=1/1+(c/IC50)^Hillslope […]
Figure S1. ATP synthesis inhibition by all pyridine compounds in order of WSA compound number. ATP synthesis activities in inverted inner membrane vesicles prepared from AB cells were measured in the presence of 0.0625-64 µg/mL, corrected for background ATP, and normalized to activity with DMSO alone (see methods). For each plot, dots are normalized activities at each concentration (n≥3) on a log 2 scale, solid lines are fitted dose response curves, and dashed lines show the 95% confidence range of the fit. IC50

[7] = tested on: AB electron transport chain (ETC); experiment: AB electron transport chain inhibition: NADH-driven H+ pumping, ACMA fluorescence quenching; format: biochemical, Acinetobacter baumannii; details: at 2 μg/mL compound
Procedure: To ensure that the pyridine analogs were selectively inhibiting AB ATP synthase, each analog was also evaluated for inhibition of the AB electron transport chain (ETC) at 2 μg/mL using a standard protocol. − Briefly, respiratory dehydrogenase complexes were energized with NADH to initiate redox-driven H^+ pumping into the vesicle lumen, which was in turn detected by the quenching of 9-amino-6-chloro-2-methoxyacradine fluorescence. Most compounds were tested at concentrations of 2 μg/mL to establish whether ETC inhibition occurred in the same range as ATP synthase inhibition (Figure S2).
NADH-driven proton pumping activity in inverted membrane vesicles was measured as previously described. Briefly, vesicles were diluted to 0.5 mg/mL in HMK buffer (50 mM HEPES, 2 mM MgCl2, 300 mM KCl, pH 7.5) with 0.3 μg/mL 9-amino-6-chloro-2-methoxyacridine (ACMA) and distributed into wells of a black 96-well plate containing various concentrations of inhibitors dissolved in DMSO. ACMA fluorescence (λex = 415 nm, λem = 485 nm) was monitored using a BioTek H1 multimode plate reader. Proton pumping was initiated by addition of NADH to 0.8 mM and terminated by addition of nigericin to 0.5 μg/mL. Activity was defined as the percent quenching of fluorescence, where fluorescence values are normalized to the maximum fluorescence following the addition of nigericin.
Figure S2. Inhibition of the AB electron transport chain (ETC) by compounds at 2 µg/mL.
ETC H+-pumping activity in inverted inner membrane vesicles prepared from AB cells was determined by the quenching of ACMA dye upon initiation with NADH. Addition of nigericin returned fluorescence to baseline, and relative fluorescence quenching is defined as the minimum fluorescence over the maximum fluorescence after addition of nigericin. Relative ETC inhibition (bars) is the fraction of fluorescence quenching decreased by the presence of 2 µg/mL compound.
(1 picture or pasted object on this page, not shown here)

[8] = Figure 2, read-out: IC50, AB ATP synthase inhibition (converted)
[9] = inverted inner membrane vesicles, 0.0625-64 µg/mL, n≥3, Table S1, read-out: AB ATP Synthase Inhibition IC50 (converted)

T1 sequence (A3M139 whole entry): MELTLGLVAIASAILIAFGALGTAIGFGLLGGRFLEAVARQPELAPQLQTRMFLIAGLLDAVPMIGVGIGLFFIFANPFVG

Compound	MIC, HEK 293 (cytotoxicity) (HEK 293 cells)	IC50 [1]	MDR AB MIC (MDR AB BAA 1605 [2])	MIC (MDR AB BAA 1605 [3])	MIC (AB BAA 1605)	fold change of MIC, AB BAA 1605 (AB BAA 1605)	fractional inhibitory concentration index (FICI) / interaction with colistin, MDR AB BAA 1605 (AB BAA 1605)	MIC +colistin, AB BAA 1605 (AB BAA 1605; with 0.25 μg/mL colistin)	MIC (AB ATCC 17978 [4])	fold change of MIC, AB ATCC 17978 (AB ATCC 17978 [4])	fractional inhibitory concentration index (FICI) / interaction with colistin, AB ATCC 17978 (AB ATCC 17978 [4])	MIC +colistin, AB ATCC 17978 (AB ATCC 17978 [4]; with 0.5 μg/mL colistin)	MIC (AB ATCC 17978 [5])	IC50 [6, 8]	Hill coefficient (Hill slope) [6]	MIC +colistin, AB ATCC 17978 (AB ATCC 17978 [4]; with 0.25 μg/mL colistin)	IC50 [6, 9]	ETC inhibition [7]	MIC +colistin, AB BAA 1605 (AB BAA 1605; with 0.125 μg/mL colistin)
CCN1CCC(CCNCc2cc3cc(-c4ccccc4)ccc3nc2SCc2ccccc2)CC1 [WSA 261, reference compound]	8 µg/mL (≈ 16.1 µM)	1550 nM	16 µg/mL	16 µg/mL (≈ 32.3 µM)	16 µg/mL	2	additivity	8 (0.25 μg/mL Col)	8 µg/mL	2	additivity	4 (0.5 μg/mL Col)	8 µg/mL (≈ 16.1 µM)						
Fc1ccc(-c2cnc(SCc3ccccc3)c(CNCc3ccc(CN4CCCC4)cc3)c2)cc1 [WSA 298]	16 µg/mL (≈ 32.1 µM)			32 µg/mL (≈ 64.3 µM)	32 µg/mL	4	synergy	8 (0.25 μg/mL Col)	16 µg/mL	2			16 µg/mL (≈ 32.1 µM)	1310 nM	-0.8	8 (0.25 μg/mL Col)			
COc1ccc(-c2cnc(SCc3ccccc3)c(CNCCC3CCN(C4CCCC4)CC3)c2)cc1 [WSA 288]	16 µg/mL (≈ 31 µM)			32 µg/mL (≈ 62 µM)	32 µg/mL	4	synergy	8 (0.25 μg/mL Col)	16 µg/mL	4	≤ 0.5		16 µg/mL (≈ 31 µM)	485 nM	-0.9				
CN1CCN(CCNCc2cc(-c3ccc(F)cc3F)cnc2SCc2ccccc2)CC1 [WSA 274]	4 µg/mL (≈ 8.54 µM)			128 µg/mL (≈ 273 µM)									32 µg/mL (≈ 68.3 µM)		-0.8		1710 nM	40%	
Cc1ccc(-c2cnc(SCc3ccccc3)c(CNCCN3CCN(C)CC3)c2)cc1 [WSA 280]	16 µg/mL (≈ 35.8 µM)			32 µg/mL (≈ 71.6 µM)	32 µg/mL	2			16 µg/mL	2		8 (0.5 μg/mL Col)	16 µg/mL (≈ 35.8 µM)	1540 nM	-0.8				16 (0.125 μg/mL Col)
CN1CCN(CCNCc2cc(-c3ccc(F)cc3)cnc2SCc2ccccc2)CC1 [WSA 273]	4 µg/mL (≈ 8.88 µM)			128 µg/mL (≈ 284 µM)									32 µg/mL (≈ 71 µM)		-0.8		1890 nM	40%	
CN1CCN(CCNCc2cc(-c3ccc(N(C)C)cc3)cnc2SCc2ccccc2)CC1 [WSA 276]	16 µg/mL (≈ 33.6 µM)			32 µg/mL (≈ 67.3 µM)	32 µg/mL	4	synergy	8 (0.25 μg/mL Col)	16 µg/mL	2		8 (0.5 μg/mL Col)	16 µg/mL (≈ 33.6 µM)	673 nM	-0.6				
Cc1ccc(-c2cnc(SCc3ccccc3)c(CNCCC3CCN(C4CCCC4)CC3)c2)cc1 [WSA 289]	16 µg/mL (≈ 32 µM)			32 µg/mL (≈ 64 µM)	32 µg/mL	2			16 µg/mL	4	≤ 0.5		16 µg/mL (≈ 32 µM)	480 nM	-0.7				16 (0.125 μg/mL Col)
COc1ccc(-c2cnc(SCc3ccccc3)c(CNCCN3CCN(C)CC3)c2)cc1F [WSA 275]	4 µg/mL (≈ 8.32 µM)			128 µg/mL (≈ 266 µM)									32 µg/mL (≈ 66.6 µM)	416 nM	-0.7		499 nM	40%	
